# Assay results published in patent publication US9345247B2, “Azaindole carboxylic acid amides and azaindole thiocarboxylic acid amides for use as insecticides and acaricides” (BAYER CROPSCIENCE AG, priority 2012, dated 2016).
# Tests used:
# [1] = tested on: larvae of the mustard beetle (Phaedon cochleariae); assay: Phaedon cochleariae spray test (PHAECO); type: in vivo; settings: for efficacy: spray, after 7 days
# Procedure: Phaedon cochleariae—Spray Test (PHAECO)
# (§1) To produce a suitable preparation of active compound, 1 part by weight of active compound is mixed with the stated amounts of solvent and emulsifier, and the concentrate is diluted with emulsifier-containing water to the desired concentration.
# Discs of Chinese cabbage leaves (Brassica pekinensis) are sprayed with an active compound formulation of the desired concentration and, after drying, populated with larvae of the mustard beetle (Phaedon cochleariae).
# After 7 days, the efficacy in % is determined. 100% means that all the beetle larvae have been killed; 0% means that no beetle larvae have been killed.
# After the stated period of time, the effect in % is determined 100% means that all the beetle larvae have been killed; 0% means that no beetle larvae have been killed.
# [2] = log P by HPLC on reversed-phase column (C18), EEC directive 79/831 Annex V.A8; type: physicochemical; settings: HPLC, acidic range pH 2.7, 43° C.
# Procedure: a) The determination of the W by LC-MS in the acidic range is effected at pH 2.7, acetonitrile (contains 0.1% formic acid) and water as eluents; linear gradient from 10% acetonitrile to 95% acetonitrile, instrument: Agilent 1100 LC-System, Agilent MSD System, HTS PAL. The log P values reported in the tables and Preparation Examples above were determined in accordance with EEC directive 79/831 Annex V.A8 by HPLC (High Performance Liquid Chromatography) using a reversed-phase column (C18). Temperature 43° C. The calibration is effected with unbranched alkan-2-ones (having 3 to 16 carbon atoms), for which the log P values are known.
# [3] = tested on: caterpillars of the armyworm (Spodoptera frugiperda); assay: Spodoptera frugiperda spray test (SPODFR); type: in vivo; settings: for efficacy: spray, after 7 days
# Procedure: Spodoptera frugiperda—Spray Test (SPODFR)
# (§2) To produce a suitable active compound formulation, 1 part by weight of active compound is mixed with the stated amounts of solvent and emulsifier, and the concentrate is diluted with emulsifier-containing water to the desired concentration.
# Leaf discs of maize (Zea mays) are sprayed with an active compound formulation of the desired concentration and, after drying, populated with caterpillars of the armyworm (Spodoptera frugiperda).
# After 7 days, the efficacy in % is determined. 100% means that all the caterpillars have been killed; 0% means that no caterpillars have been killed.
# as §1
# Leaf discs of maize (Zea mays) are sprayed with an active compound preparation of the desired concentration and, after drying, populated with caterpillars of the armyworm (Spodoptera frugiperda).
# After the stated period of time, the effect in % is determined. 100% means that all the caterpillars have been killed; 0% means that no caterpillars have been killed.
# [4] = tested on: greenhouse red spider mite (Tetranychus urticae); assay: Tetranychus urticae spray test, OP-resistant (TETRUR); type: in vivo; settings: for efficacy: 100 g/ha, spray, after 6 days
# Procedure: as §2
# Discs of bean leaves (Phaseolus vulgaris) infested by all stages of the greenhouse red spider mite (Tetranychus urticae) are sprayed with an active compound formulation of the desired concentration.
# After 6 days, the efficacy in % is determined 100% means that all the spider mites have been killed; 0% means that none of the spider mites have been killed. […]
# [5] = tested on: Lucilia cuprina larvae; assay: Lucilia cuprina test (LUCICU); type: in vivo; settings: 100 ppm, after 2 days
# Procedure: (§3) Lucilia cuprina Test (LUCICU) [table] To produce a suitable active compound formulation, 10 mg of active compound are mixed with 0.5 ml of dimethyl sulfoxide, and the concentrate is diluted with water to the desired concentration. Vessels containing horse meat treated with the active compound formulation of the desired concentration are populated with about 20 Lucilia cuprina larvae. After 2 days, the kill in % is determined 100% means that all the larvae have been killed; 0% means that none of the larvae have been killed.
# [6] = tested on: Ctenocephalides felis; assay: Ctenocephalides felis; oral (CTECFE); type: in vivo; settings: 100 ppm, oral in cattle blood, after 2 days
# Procedure: Ctenocephalides felis; Oral (CTECFE)
# To produce a suitable active compound formulation, 10 mg of active compound are mixed with 0.5 ml of dimethyl sulphoxide. A portion of the concentrate is diluted with citrated cattle blood, and the desired concentration is prepared.
# About 20 unfed adult fleas (Ctenocephalides felis) are placed into a chamber which is closed at the top and bottom with gauze. A metal cylinder whose bottom end is closed with parafilm is placed onto the chamber. The cylinder contains the blood/active compound preparation, which can be imbibed by the fleas through the parafilm membrane.
# After 2 days, the kill in % is determined 100% means that all fleas have been killed; 0% means that none of the fleas have been killed.
# [7] = tested on: Boophilus microplus; assay: Boophilus microplus test (BOOPMI injection); type: in vivo; settings: 20 μg/animal, after 7 days
# Procedure: Boophilus microplus Test (BOOPMI Injection) [table] To produce a suitable active compound formulation, 10 mg of active compound are mixed with 0.5 ml of solvent and the concentrate is diluted with solvent to the desired concentration. The active compound solution is injected into the abdomen (Boophilus microplus), and the animals are transferred into dishes and stored in a climate-controlled room. After 7 days, the efficacy in % is determined. The activity is assessed by laying of fertile eggs. 100% means that none of the ticks has laid any fertile eggs.
# [8] = tested on: adult Musca domestica; assay: Musca domestica test (MUSCDO); type: in vivo; settings: 100 ppm, after 2 days
# Procedure: as §3, with “Musca domestica” for “Lucilia cuprina”, “(MUSCDO)” for “(LUCICU)”, “a sponge” for “horse meat”, “adult Musca domestica.” for “about 20 Lucilia cuprina larvae.”, “flies” for “the larvae”, “no flies” for “none of the larvae”
SMILES,efficacy ([1]; 100 g/ha) [%],log p [2],efficacy ([3]; 100 g/ha) [%],efficacy [4] [%],other results
C#CCn1c(C(=O)NC(c2cc(Cl)c(F)c(Cl)c2)C(F)(F)F)cc2cc(C(=O)NC3CC3)c(Cl)nc21 (centres unmarked) [Compound 68],100,3.85,100,–,–
CCn1c(C(=O)NC(c2ccc(F)c(Cl)c2)C(F)(F)F)cc2cc(C(=O)NCc3ccccn3)c(Cl)nc21 (centres unmarked) [Compound 58],100,3.17,–,100,efficacy (kill) [5]: 100%; efficacy (kill) [6]: 100%; efficacy (laying of fertile eggs) [7]: 100%
CCn1c(C(=O)NC(c2ccc(F)c(Cl)c2)C(F)(F)F)cc2cc(C(=O)NC3CC3)c(Cl)nc21 (centres unmarked) [Compound 16],100,3.61,–,90,efficacy (kill) [8]: 100%; efficacy (kill) [5]: 100%; efficacy (kill) [6]: 100%; efficacy (laying of fertile eggs) [7]: 100%
CCn1c(C(=O)NC(c2cc(Cl)c(F)c(Cl)c2F)C(F)(F)F)cc2cc(C(=O)NC3(C#N)CC3)c(Cl)nc21 (centres unmarked) [Compound 31],100,4.32,100,–,–
C#CCn1c(C(=O)NC(c2cccc(C(F)(F)F)c2)C(F)(F)F)cc2cc(C(=O)NC3CC3)c(Cl)nc21 (centres unmarked) [Compound 23],100,3.45,100,90,efficacy (kill) [5]: 100%; efficacy (laying of fertile eggs) [7]: 100%
CCn1c(C(=O)NC(c2cccc(C(F)(F)F)c2)C(F)(F)F)cc2cc(C(=O)NC3CC3)c(C(F)(F)F)nc21 (centres unmarked) [Compound 73],100,4.00,100,–,–
CCn1c(C(=O)NC(c2ccc(F)c(Cl)c2)C(F)(F)F)cc2cc(C(=O)NC3CC3)c(C)nc21 (centres unmarked) [Compound 9],–,3.39,100,–,efficacy ([1]; 20 g/ha): 100%
CCn1c(C(=O)NC(c2cccc(C(F)(F)F)c2)C(F)(F)F)cc2cc(C(=O)NC3CCC3)c(C)nc21 (centres unmarked) [Compound 5],100,3.89,–,90,–
CCn1c(C(=O)NC(c2cccc(C(F)(F)F)c2)C(F)(F)F)cc2cc(C(=O)NC3(C#N)CC3)c(C(F)(F)F)nc21 (centres unmarked) [Compound 74],100,3.93,100,–,efficacy ([1]; 500 g/ha): 100%; efficacy ([3]; 500 g/ha): 100%
C#CCn1c(C(=O)NC(c2cc(Cl)c(F)c(Cl)c2F)C(F)(F)F)cc2cc(C(=O)NC3CC3)c(Cl)nc21 (centres unmarked) [Compound 69],100,4.01,100,–,–
CCn1c(C(=O)NC(c2cc(Cl)c(F)c(Cl)c2)C(F)(F)F)cc2cc(C(=O)NC3CC3)c(C)nc21 (centres unmarked) [Compound 72],100,4.00,100,–,–
CCn1c(C(=O)NC(c2cccc(C(F)(F)F)c2)C(F)(F)F)cc2cc(C(=O)NCC(F)(F)F)c(Cl)nc21 (centres unmarked) [Compound 41],100,4.08,100,–,efficacy (kill) [8]: 100%; efficacy (kill) [5]: 100%; efficacy (kill) [6]: 100%; efficacy (laying of fertile eggs) [7]: 100%
CCn1c(C(=O)NC(c2ccc(F)c(C(F)(F)F)c2)C(F)(F)F)cc2cc(C(=O)NC3(C(N)=S)CC3)c(Cl)nc21 (centres unmarked) [Compound 66],100,3.64,100,100,–
CCn1c(C(=O)NC(c2cc(Cl)c(F)c(Cl)c2F)C(F)(F)F)cc2cc(C(=O)NC3CC3)c(C)nc21 (centres unmarked) [Compound 71],100,4.21,100,–,–
CCn1c(C(=O)NC(c2cccc(C(F)(F)F)c2)C(F)(F)F)cc2cc(C(=O)NCc3ccccn3)c(C)nc21 (centres unmarked) [Compound 7],–,2.99,–,90,–
CCn1c(C(=O)NC(c2cc(Cl)cc(Cl)c2)C(F)(F)F)cc2cc(C(=O)NC3CC3)c(Cl)nc21 (centres unmarked) [Compound 28],100,–,100,–,efficacy (kill) [8]: 100%; efficacy (kill) [5]: 100%; efficacy (kill) [6]: 95%; efficacy (laying of fertile eggs) [7]: 100%
CCn1c(C(=O)NC(c2cccc(C(F)(F)F)c2)C(F)(F)F)cc2cc(C(=O)NCC#N)c(Cl)cc21 (centres unmarked) [reference compound],–,–,–,–,"Emax at 100 g/ha ([4]; Tetranychus urticae, 144 h, TETRUR, 100 g of ai/ha, 6 d, read-out: % Efficacy dat): 0%"
CCn1c(C(=O)NC(c2ccc(F)c(Cl)c2)C(F)(F)F)cc2cc(C(=O)NC(C)C)c(Cl)nc21 (centres unmarked) [Compound 17],–,3.88,–,100,–
Cn1c(C(=O)NC(c2cccc(C(F)(F)F)c2)C(F)(F)F)cc2cc(C(=O)NC3CC3)c(Cl)cc21 (centres unmarked) [reference compound],–,–,–,–,"Emax at 4 g/ha ([4]; Tetranychus urticae, 144 h, TETRUR, 4 g of ai/ha, 6 d, read-out: % Efficacy dat): 0%; percent efficacy (larval mortality) at 0.8 g/ha ([1]; Phaedon cochleariae, 168 h, PHAECO, 0.8 g of ai/ha, 7 d, read-out: % Efficacy dat): 0%; Emax at 4 g/ha ([3]; Spodoptera frugiperda, 168 h, SPODFR, 4 g of ai/ha, 7 d, read-out: % Efficacy dat): 17%"
CCn1c(C(=O)NC(c2ccc(F)c(C(F)(F)F)c2)C(F)(F)F)cc2cc(C(=O)NC3CC3)c(C)nc21 (centres unmarked) [Compound 76],100,3.67,100,100,–
CCn1c(C(=O)NC(c2cccc(C(F)(F)F)c2)C(F)(F)F)cc2cc(C(=O)NC3COC3)c(Cl)nc21 (centres unmarked) [Compound 39],100,3.28,–,90,–
CCn1c(C(=O)NC(c2cc(Cl)c(F)c(Cl)c2)C(F)(F)F)cc2cc(C(=O)NCc3ccccn3)c(Cl)nc21 (centres unmarked) [Compound 60],100,3.67,–,90,efficacy (kill) [5]: 100%; efficacy (kill) [6]: 95%; efficacy (laying of fertile eggs) [7]: 100%
CCn1c(C(=O)NC(c2cccc(C(F)(F)F)c2)C(F)(F)F)cc2cc(C(=O)NC3CC3)cnc21 (centres unmarked) [Compound 3],100,3.19,–,–,–
C#CCn1c(C(=O)NC(c2cccc(C(F)(F)F)c2)C(F)(F)F)cc2cc(C(=O)Nc3ccc(Cl)cn3)c(Cl)nc21 (centres unmarked) [Compound 61],83,4.49,–,–,–
CCn1c(C(=O)NC(c2cccc(C(F)(F)F)c2)C(F)(F)F)cc2cc(C(=O)NC(C)C)c(C)nc21 (centres unmarked) [Compound 4],100,3.74,–,–,–
C#CCn1c(C(=O)NC(c2cccc(C(F)(F)F)c2)C(F)(F)F)cc2cc(C(=O)NC3CCC3)c(Cl)nc21 (centres unmarked) [Compound 25],100,3.79,–,90,–
C#CCn1c(C(=O)NC(c2ccc(F)c(C(F)(F)F)c2)C(F)(F)F)cc2cc(C(=O)NC3CC3)c(Cl)nc21 (centres unmarked) [Compound 70],100,3.55,100,–,–
